# From patent US20110190503A1, “Thiazolopyridin-2-yloxy-phenyl and thiazolopyrazin-2-yloxy-phenyl amines as modulators of leukotriene A4 hydrolase” (Janssen Pharmaceutical NV, priority 2008, published 2011)
# Where a name gives a salt, the structure may show the parent alone. Read-outs that look alike come from different tables or passages of the source.
# Tests used:
# [1] = tested on: LTB4 production by calcium ionophore-stimulated murine blood; test: LTB4 production by calcium ionophore-stimulated murine blood for LTA4H inhibitor activity; assay type: cell-based, CD-1 mice
# Method: Assay 2: LTB4 Production by Calcium Ionophore-Stimulated Murine Blood for LTA4H Inhibitor Activity
# CD-1 mice were sacrificed, and blood was collected in heparin-containing syringes by cardiac puncture. […] After the microtiter plate contents were incubated for 15 min at 37° C. in a humidified incubator, calcium ionophore A23187 (Sigma Chemical Co., St. Louis, Mo.) was added to each sample well (final concentration=7 μg/mL). The incubation was continued under the same conditions for an additional 30 min to allow LTB4 formation. The reaction was terminated by centrifugation (833×g, 10 min at 4° C.), and supernatants were analyzed for LTB4 by a commercially available enzyme-linked immunoassay (Cayman Chemical Co.) according to the manufacturer's instructions. Positive controls, under essentially identical conditions but without addition of an inhibitor compound, and negative unstimulated controls, containing all assay components except calcium ionophore, were routinely run in each experiment. […] The values presented here are the result of a single determination or an average of two or more determinations, as indicated in parentheses following each value. For compounds tested three or more times, the average value is followed by the standard deviation
# [2] = target: T1, recombinant human LTA4 hydrolase (rhLTA4H) (Homo sapiens, UniProt P09960); test: Recombinant human LTA4 hydrolase assay for LTA4 hydrolase inhibitor activity; assay type: biochemical; settings: rhLTA4H, LTA4 substrate, LTB4 by immunoassay; single determination or average; read-out: IC50
# T1 construct: made in house; host or cells: Spodoptera frugiperda (Sf-9) cells, recombinant baculovirus (pFastBac1)
# T1 sequence (P09960 1-611): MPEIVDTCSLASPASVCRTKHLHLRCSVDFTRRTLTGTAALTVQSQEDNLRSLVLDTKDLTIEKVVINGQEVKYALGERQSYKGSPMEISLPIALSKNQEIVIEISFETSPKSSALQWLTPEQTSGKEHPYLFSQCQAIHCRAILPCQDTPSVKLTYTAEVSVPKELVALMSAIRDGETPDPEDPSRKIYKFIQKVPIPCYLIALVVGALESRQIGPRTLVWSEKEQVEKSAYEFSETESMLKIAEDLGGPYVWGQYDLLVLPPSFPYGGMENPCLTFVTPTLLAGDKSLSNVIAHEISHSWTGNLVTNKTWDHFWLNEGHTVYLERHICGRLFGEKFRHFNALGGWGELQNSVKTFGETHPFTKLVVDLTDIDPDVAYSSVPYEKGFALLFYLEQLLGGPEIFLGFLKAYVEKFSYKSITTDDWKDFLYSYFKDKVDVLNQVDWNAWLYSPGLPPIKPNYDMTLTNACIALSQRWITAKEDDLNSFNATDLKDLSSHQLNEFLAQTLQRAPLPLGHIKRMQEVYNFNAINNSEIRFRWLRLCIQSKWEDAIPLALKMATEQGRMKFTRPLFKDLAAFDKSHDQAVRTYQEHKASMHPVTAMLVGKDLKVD
# How it was run: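 Recombinant human LTA4H from baculovirus-infected Sf-9 cells (10 ng) pre-incubated 10 min at rt with compound (10% DMSO in dilutions), then reacted with free-acid LTA4 for 30 min at rt. LTB4 measured by ELISA; IC50 by nonlinear regression. Values are single determinations or averages.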
# [3] = Mus musculus, murine blood diluted 1 in 15, calcium ionophore A23187, LTB4 by immunoassay, read-out: IC50
"IC50 ([1]; murine blood diluted 1 in 15, calcium ionophore A23187, LTB4 by immunoassay, read-out: IC50)",SMILES,"IC50 [1, 3]",IC50 [2],IC50 ([1]; Mus musculus)
,"NC(=O)N1C[C@H]2CC[C@@H](C1)N2Cc1ccc(Oc2nc3ncccc3s2)cc1 [Example 117, meso-8-[4-([1,3]Thiazolo[4,5-b]pyridin-2-yloxy)benzyl]-3,8-diazabicyclo[3.2.1]octane-3-carboxamide]",0.018 µM,0.009 µM,
,"CC(=O)N[C@H]1C[C@H]2CC[C@@H](C1)N2Cc1ccc(Oc2nc3cccnc3s2)cc1 [Example 119, meso-N-{(3-endo)-8-[4-([1,3]Thiazolo[5,4-b]pyridin-2-yloxy)benzyl]-8-azabicyclo[3.2.1]oct-3-yl}acetamide]",0.77 µM,0.07 µM,
,"CC(=O)N1C[C@@H]2C[C@H]1CN2Cc1ccc(Oc2nc3cccnc3s2)cc1 [Example 124, 2-(4-{[(1S,4S)-5-Acetyl-2,5-diazabicyclo[2.2.1]hept-2-yl]methyl}phenoxy)[1,3]thiazolo[5,4-b]pyridine]",0.7 µM,0.22 µM,
,"CC(=O)N1C[C@@H]2C[C@H]1CN2Cc1ccc(Oc2nc3nccc(C)c3s2)cc1 [Example 125, 2-(4-{[(1S,4S)-5-Acetyl-2,5-diazabicyclo[2.2.1]hept-2-yl]methyl}phenoxy)-7-methyl[1,3]thiazolo[4,5-b]pyridine]",0.019 µM,0.012 µM,
,"CC(=O)N1C[C@@H]2C[C@H]1CN2Cc1ccc(Oc2nc3ncc(F)cc3s2)cc1 [Example 128, 2-(4-{[(1S,4S)-5-Acetyl-2,5-diazabicyclo[2.2.1]hept-2-yl]methyl}phenoxy)-6-fluoro[1,3]thiazolo[4,5-b]pyridine]",0.005 µM,0.023 µM,
,"CCOC(=O)C1CCN(Cc2ccc(Oc3nc4ncccc4s3)cc2)CC1 [Example 130, Ethyl 1-[4-([1,3]thiazolo[4,5-b]pyridin-2-yloxy)benzyl]piperidine-4-carboxylate]",0.11 µM,0.0025 µM,
,"O=C(O)C1CCN(Cc2ccc(Oc3nc4ncccc4s3)cc2)CC1 [Example 131, 1-[4-([1,3]Thiazolo[4,5-b]pyridin-2-yloxy)benzyl]piperidine-4-carboxylic acid]",1.07 µM,0.0078 µM,
,"CC(=O)N[C@H]1C[C@H]2CC[C@@H](C1)N2Cc1ccc(Oc2nc3cnccc3s2)cc1 [Example 134, meso-N-{(3-endo)-8-[4-([1,3]Thiazolo[4,5-c]pyridin-2-yloxy)benzyl]-8-azabicyclo[3.2.1]oct-3-yl}acetamide]",0.18 µM,0.038 µM,
,"COc1ccccc1N1CCN(CCOc2ccc(Oc3nc4ncccc4s3)cc2)CC1 [Example 135, 2-(4-{2-[4-(2-Methoxyphenyl)piperazin-1-yl]ethoxy}phenoxy)[1,3]thiazolo[4,5-b]pyridine]",0.088 µM,0.072 µM,
,"OC1CCN(Cc2ccc(Oc3nc4ncccc4s3)cc2)CC1 [Example 137, 1-[4-([1,3]Thiazolo[4,5-b]pyridin-2-yloxy)benzyl]piperidin-4-ol]",0.0056 µM,0.008 µM,
,"CC(=O)N1C[C@H]2CC[C@@H](C1)N2CCOc1ccc(Oc2nc3ncccc3s2)cc1 [Example 141, meso-2-{4-[2-(3-Acetyl-3,8-diazabicyclo[3.2.1]oct-8-yl)ethoxy]phenoxy}[1,3]thiazolo[4,5-b]pyridine]",0.014 µM,0.002 µM,
,"NC(=O)N[C@@H]1C[C@H]2CC[C@@H](C1)N2CCOc1ccc(Oc2nc3ncccc3s2)cc1 [Example 142, meso-1-[(3-exo)-8-{2-[4-([1,3]Thiazolo[4,5-b]pyridin-2-yloxy)phenoxy]ethyl}-8-azabicyclo[3.2.1]oct-3-yl]urea hydrochloride]",,0.008 µM,1600 µM
,"Cc1ccnc2nc(Oc3ccc(OCCN4CC5CN(C(=O)C6CCC6)CC5C4)cc3)sc12 (stereo not shown) [Example 146, 2-(4-{2-[5-(Cyclobutylcarbonyl)hexahydropyrrolo[3,4-c]pyrrol-2(1H)-yl]ethoxy}phenoxy)-7-methyl[1,3]thiazolo[4,5-b]pyridine]",0.45 µM,0.097 µM,
,"CC(=O)N[C@H]1C[C@H]2CC[C@@H](C1)N2CCOc1ccc(Oc2nc3nccnc3s2)cc1 [Example 148, meso-N-[(3-endo)-8-{2-[4-([1,3]Thiazolo[4,5-b]pyrazin-2-yloxy)phenoxy]ethyl}-8-azabicyclo[3.2.1]oct-3-yl]acetamide]",0.036 µM,0.043 µM,
,"NC(=O)N1[C@@H]2CC[C@H]1CN(CCOc1ccc(Oc3nc4ncccc4s3)cc1)C2 [Example 149, meso-3-{2-[4-([1,3]Thiazolo[4,5-b]pyridin-2-yloxy)phenoxy]ethyl}-3,8-diazabicyclo[3.2.1]octane-8-carboxamide]",0.18 µM,0.063 µM,
,"CC(=O)N[C@@H]1C[C@H]2CC[C@@H](C1)N2CCOc1ccc(Oc2nc3cccnc3s2)cc1 [Example 153, meso-N-[(3-exo)-8-{2-[4-([1,3]Thiazolo[5,4-b]pyridin-2-yloxy)phenoxy]ethyl}-8-azabicyclo[3.2.1]oct-3-yl]acetamide]",0.36 µM,0.035 µM,
,"CC(=O)NC1CCN(CCOc2ccc(Oc3nc4ncc(C)cc4s3)cc2)CC1 [Example 154, N-[1-(2-{4-[(6-Methyl[1,3]thiazolo[4,5-b]pyridin-2-yl)oxy]phenoxy}ethyl)piperidin-4-yl]acetamide]",0.33 µM,0.049 µM,
,"CC(=O)N1[C@@H]2CC[C@H]1C[C@@H](NCCOc1ccc(Oc3nc4ncccc4s3)cc1)C2 [Example 159, meso-(3-endo)-8-acetyl-N-{2-[4-([1,3]thiazolo[4,5-b]pyridin-2-yloxy)phenoxy]ethyl}-8-azabicyclo[3.2.1]octan-3-amine]",0.082 µM,0.009 µM,
,"COCCN(C)CCOc1ccc(Oc2nc3nccc(C)c3s2)cc1 [Example 160, N-Methyl-2-(methyloxy)-N-[2-({4-[(7-methyl[1,3]thiazolo[4,5-b]pyridin-2-yl)oxy]phenyl}oxy)ethyl]ethanamine]",0.18 µM,0.099 µM,
,"CC(=O)N1[C@@H]2CC[C@H]1CN(CCOc1ccc(Oc3nc4ncccc4s3)cc1)C2 [Example 162, meso-2-{[4-({2-[8-Acetyl-3,8-diazabicyclo[3.2.1]oct-3-yl]ethyl}oxy)phenyl]oxy}[1,3]thiazolo[4,5-b]pyridine]",0.012 µM,0.003 µM,
,"CS(=O)(=O)NC1CCN(CCOc2ccc(Oc3nc4ncccc4s3)cc2)CC1 [Example 163, N-[1-(2-{[4-([1,3]Thiazolo[4,5-b]pyridin-2-yloxy)phenyl]oxy}ethyl)piperidin-4-yl]methanesulfonamide]",0.031 µM,0.006 µM,
,"CC(=O)N1[C@@H]2CC[C@H]1C[C@@H](NCc1ccc(Oc3nc4ncccc4s3)cc1)C2 [Example 169, meso-(3-endo)-8-Acetyl-N-{[4-([1,3]thiazolo[4,5-b]pyridin-2-yloxy)phenyl]methyl}-8-azabicyclo[3.2.1]octan-3-amine]",0.054 µM,0.018 µM,
,"CCCCN(CC)CCc1ccc(Oc2nc3ncc(C)cc3s2)cc1 [Example 178, N-Ethyl-N-(2-{4-[(6-methyl[1,3]thiazolo[4,5-b]pyridin-2-yl)oxy]phenyl}ethyl)butan-1-amine]",0.26 µM,0.011 µM,
,"CS(=O)(=O)N[C@H]1C[C@H]2CC[C@@H](C1)N2Cc1ccc(Oc2nc3ncccc3s2)cc1 [Example 182, meso-N-[(3-endo)-8-{[4-([1,3]Thiazolo[4,5-b]pyridin-2-yloxy)phenyl]methyl}-8-azabicyclo[3.2.1]oct-3-yl]methanesulfonamide]",0.024 µM,0.0019 µM,
,"c1cnc(OC2CCN(Cc3ccc(Oc4nc5nccnc5s4)cc3)CC2)nc1 [Example 184, 2-[(4-{[4-(Pyrimidin-2-yloxy)piperidin-1-yl]methyl}phenyl)oxy][1,3]thiazolo[4,5-b]pyrazine]",0.11 µM,0.018 µM,
0.85 µM,"CC(=O)N1C2CCC1CN(Cc1ccc(Oc3nc4ncccc4s3)cc1)C2 [Example 185, meso-2-[(4-{[8-Acetyl-3,8-diazabicyclo[3.2.1]oct-3-yl]methyl}phenyl)oxy][1,3]thiazolo[4,5-b]pyridine]",,0.007 µM,
